# Laboratory results as given in article PMC1976805, “Preclinical pharmacokinetics of benznidazole” (British Journal of Cancer, 1984).
# Read-outs that look alike come from different tables or passages of the source.
# What was measured:
# [1] = Penetration into whole brain of BALB/c mice bearing EMT6 tumours; format: in vivo, mouse; conditions: for brain/whole plasma ratio (% ± s.e.) / brain/whole plasma ratio (s.e., n=5): 650 mg kg-1 i.p.; for tumour/brain ratio (% + s.e.): EMT6, 650 mg kg-1 i.p.; for brain/whole plasma ratio (s.e., n=5): experiment b; for Kp: male, BALB/c, mouse, whole brain / whole plasma
# Source text: Br. J. Cancer (1984), 50, 291-303 Preclinical pharmacokinetics of benznidazole P. Workman', R.A.S. White2, M.I. Walton', L.N. Owen2* & P.R. Twentyman' 1MRC Clinical Oncology and Radiotherapeutics Unit, MRC Centre, Hills Road, Cambridge CB2 2QH, and 2Department of Clinical Veterinary Medicine, University of Cambridge, Madingley Road, Cambridge CB3 OES, UK. […] We have investigated the detailed pharmacokinetics of benznidazole in mice, dogs and sheep to provide a data base for the estimation of doses required for chemosensitization in man. Pharmacokinetic behaviour was linear except at high doses in mice. Absorption was fairly rapid and bioavailability was complete following both i.p. administration in mice and oral administration in dogs. Elimination t4 values were longer than for MISO, being 90 min in mice, 4-5 h in sheep and 9-11 h in dogs. At doses giving linear kinetics, peak whole plasma concentrations per administered mgkg-1 were 0.75 jigml-1 for the i.p. route in mice and 1.8jugmlP' for the oral route in dogs. Though between 39 and 59% of plasma benznidazole was bound to protein, tissue penetration was generally good. Tissue/whole plasma ratios ranged from 59-99% for transplantable mouse tumours and from 14-70% for spontaneous dog neoplasms. Nervous tissue penetration was similar to that in tumours: brain/whole plasma ratios averaged between 61 and 76% in mice and 42% in dogs, while peripheral nerve/whole plasma ratios in dogs averaged 74%. Mean liver/whole plasma ratios were 42% and 71% in BALB/c and C3H/He mouse strains respectively. Only -5% of the administered dose was excreted unchanged in the urine, indicating the likelihood of extensive metabolism. […] Enhancement of CCNU response is likely to require circulating benznidazole concentrations of 10-30 pgml-1 and we predict that these will be obtained with oral doses of 6-20 mgkg- 1 in man. […] This enhancement, or chemosensitization, is usually greater than that seen in dose-limiting normal tissues, resulting in an improved therapeutic index. Because of the relatively high doses of MISO usually required for chemosensitization in mice (see above refs), and also because of its neurotoxicity in man (Dische et al., 1977), we have been interested in finding an improved chemosensitizer. […] The lipophilic ana- logue benznidazole (N-benzyl-(2-nitroimidazolyl) acetamide, Ro 07-1051; Radanil; Roche), the structure of which is shown in Figure 1, was selected for detailed study because of its ability to *Present address: Animal Health Trust, Small Animals Centre, Lanwades Park, Kennett, Newmarket, Suffolk CB8 7PN, UK. Correspondence: P. Workman. […] These findings have been confirmed independently by Siemann et al. (1983). Although benznidazole is used quite widely in South America to treat patients with the trypanosomal infection Chagas' disease or with mucotaneous Leishmaniasis (Barclay et al., 1978; Cerisola et al., 1978; Coura et al., 1978; Fava et al., 1978), apart from our preliminary studies (White et al., 1982) the only published data on its pharmaco- kinetics are for human plasma concentrations measured by polarography (Raaflub & Ziegler, 1979; Raaflub, 1980). Here we describe the pharmacokinetics of benznidazole in the mouse, sheep and dog, as determined by high-performance liquid chromatography (HPLC). […] The Macmillan Press Ltd., 1984 292 P. WORKMAN et al. particularly on plasma and tumour concentrations, have been used as a basis for the estimation of the benznidazole doses required in a Phase I trial of benznidazole plus CCNU, at present ongoing in our Unit. Materials and methods Animals and tumours Adult inbred male BALB/c mice were obtained from OLAC (Southern) Ltd. (Bicester, UK) and adult inbred C3H/He mice of both sexes from OLAC and our own breeding colony. Mice were housed in plastic cages on sawdust bedding made from soft white woods, and allowed laboratory chow and water ad lib. They were used at 20-35 g body wt.
# [2] = Whole plasma pharmacokinetics in sheep (HPLC); format: in vivo; conditions: for half-life: male, Clun Forest/Border Leicester cross, sheep, plasma, iv
# Source text: Br. J. Cancer (1984), 50, 291-303 Preclinical pharmacokinetics of benznidazole P. Workman', R.A.S. White2, M.I. Walton', L.N. Owen2* & P.R. Twentyman' 1MRC Clinical Oncology and Radiotherapeutics Unit, MRC Centre, Hills Road, Cambridge CB2 2QH, and 2Department of Clinical Veterinary Medicine, University of Cambridge, Madingley Road, Cambridge CB3 OES, UK. […] We have investigated the detailed pharmacokinetics of benznidazole in mice, dogs and sheep to provide a data base for the estimation of doses required for chemosensitization in man. Pharmacokinetic behaviour was linear except at high doses in mice. Absorption was fairly rapid and bioavailability was complete following both i.p. administration in mice and oral administration in dogs. Elimination t4 values were longer than for MISO, being 90 min in mice, 4-5 h in sheep and 9-11 h in dogs. At doses giving linear kinetics, peak whole plasma concentrations per administered mgkg-1 were 0.75 jigml-1 for the i.p. route in mice and 1.8jugmlP' for the oral route in dogs. Though between 39 and 59% of plasma benznidazole was bound to protein, tissue penetration was generally good. Tissue/whole plasma ratios ranged from 59-99% for transplantable mouse tumours and from 14-70% for spontaneous dog neoplasms. Nervous tissue penetration was similar to that in tumours: brain/whole plasma ratios averaged between 61 and 76% in mice and 42% in dogs, while peripheral nerve/whole plasma ratios in dogs averaged 74%. Mean liver/whole plasma ratios were 42% and 71% in BALB/c and C3H/He mouse strains respectively. Only -5% of the administered dose was excreted unchanged in the urine, indicating the likelihood of extensive metabolism. […] Enhancement of CCNU response is likely to require circulating benznidazole concentrations of 10-30 pgml-1 and we predict that these will be obtained with oral doses of 6-20 mgkg- 1 in man. […] This enhancement, or chemosensitization, is usually greater than that seen in dose-limiting normal tissues, resulting in an improved therapeutic index. Because of the relatively high doses of MISO usually required for chemosensitization in mice (see above refs), and also because of its neurotoxicity in man (Dische et al., 1977), we have been interested in finding an improved chemosensitizer. […] The lipophilic ana- logue benznidazole (N-benzyl-(2-nitroimidazolyl) acetamide, Ro 07-1051; Radanil; Roche), the structure of which is shown in Figure 1, was selected for detailed study because of its ability to *Present address: Animal Health Trust, Small Animals Centre, Lanwades Park, Kennett, Newmarket, Suffolk CB8 7PN, UK. Correspondence: P. Workman. […] These findings have been confirmed independently by Siemann et al. (1983). Although benznidazole is used quite widely in South America to treat patients with the trypanosomal infection Chagas' disease or with mucotaneous Leishmaniasis (Barclay et al., 1978; Cerisola et al., 1978; Coura et al., 1978; Fava et al., 1978), apart from our preliminary studies (White et al., 1982) the only published data on its pharmaco- kinetics are for human plasma concentrations measured by polarography (Raaflub & Ziegler, 1979; Raaflub, 1980). Here we describe the pharmacokinetics of benznidazole in the mouse, sheep and dog, as determined by high-performance liquid chromatography (HPLC). […]
# plasma proteins = assay: Plasma protein binding in sheep (plasma ultrafiltrate); format: in vivo
# Source text: Br. J. Cancer (1984), 50, 291-303 Preclinical pharmacokinetics of benznidazole P. Workman', R.A.S. White2, M.I. Walton', L.N. Owen2* & P.R. Twentyman' 1MRC Clinical Oncology and Radiotherapeutics Unit, MRC Centre, Hills Road, Cambridge CB2 2QH, and 2Department of Clinical Veterinary Medicine, University of Cambridge, Madingley Road, Cambridge CB3 OES, UK. […] We have investigated the detailed pharmacokinetics of benznidazole in mice, dogs and sheep to provide a data base for the estimation of doses required for chemosensitization in man. Pharmacokinetic behaviour was linear except at high doses in mice. Absorption was fairly rapid and bioavailability was complete following both i.p. administration in mice and oral administration in dogs. […] Although benznidazole is used quite widely in South America to treat patients with the trypanosomal infection Chagas' disease or with mucotaneous Leishmaniasis (Barclay et al., 1978; Cerisola et al., 1978; Coura et al., 1978; Fava et al., 1978), apart from our preliminary studies (White et al., 1982) the only published data on its pharmaco- kinetics are for human plasma concentrations measured by polarography (Raaflub & Ziegler, 1979; Raaflub, 1980). Here we describe the pharmacokinetics of benznidazole in the mouse, sheep and dog, as determined by high-performance liquid chromatography (HPLC). […]
# [3] = cited from earlier work
# [4] = Plasma pharmacokinetics in man (literature); format: in vivo; conditions: oral doses of 6-20 mg kg-1, extrapolated from dog and literature human data
# KHT tumour = conditions: mice, cited from earlier work
# [5] = man, average daily dose 3.5 mg kg-1, literature
# [6] = benznidazole 78 mg kg-1 i.p., ref Twentyman & Workman, 1983, Siemann et al.
smiles,measurement,setting,value
"O=C(Cn1ccnc1[N+](=O)[O-])NCc1ccccc1 [benznidazole, N-benzyl-(2-nitroimidazolyl) acetamide]",brain/whole plasma ratio (% ± s.e.),"[1]; Exp 1 (a), n=16",61+5%
same,tumour/brain ratio (% + s.e.),"[1]; Exp 1 (a), n=16",120+33%
same,brain/whole plasma ratio (% ± s.e.),"[1]; Exp 2 (b), n=20",68+3%
same,tumour/brain ratio (% + s.e.),"[1]; Exp 2 (b), n=20",116+5%
same,brain/whole plasma ratio (% ± s.e.),"[1]; Exp 3 (c), n=20",76+4%
same,tumour/brain ratio (% + s.e.),"[1]; Exp 3 (c), n=20",99+7%
same,"brain/whole plasma ratio (s.e., n=5)",[1]; 45 min,56+3%
same,"brain/whole plasma ratio (s.e., n=5)",[1]; 75 min,69+3%
same,"brain/whole plasma ratio (s.e., n=5)",[1]; 105 min,71+5%
same,"brain/whole plasma ratio (s.e., n=5)",[1]; 135 min,75 +5%
same,Kp,"[1]; mice, discussion comparison with MISO, read-out: brain/whole plasma ratio",0.68
same,Kp,"[1]; read-out: brain/whole plasma ratios, range of averages",0.61 to 0.76
same,half-life,"[2]; 4 mg/kg, sheep 1, 4 mg kg-1 i.v., read-out: elimination t1/2 (95% confidence limits) (converted)",5.2 h
same,half-life,"[2]; 4 mg/kg, sheep 2, 4 mg kg-1 i.v., read-out: elimination t1/2 (95% confidence limits) (converted)",3.8 h
same,half-life,"[2]; summary value, read-out: elimination t1/2",4 to 5 h
same,peak whole plasma concentration,"[2]; sheep 1, 4 mg kg-1 i.v.",3.6 µg/mL
same,peak whole plasma concentration,"[2]; sheep 2, 4 mg kg-1 i.v.",2.5 µg/mL
same,fraction unbound,"plasma proteins; male, Clun Forest/Border Leicester cross, plasma, iv, sheep 2, 4 mg kg-1 i.v., read-out: protein binding (s.e., n=6) (converted)",0.58
same,binding to plasma proteins,"plasma proteins; sheep, discussion summary",42%
same,mean t1/2,"[3]; humans, low doses, polarographic analysis, ref Raaflub & Ziegler (1979) and Raaflub (1980)",12 to 14 h
same,"mean steady state maximum plasma concentration (s.e., n=6)",[3]; [5],12.4 ± 0.7 µg/mL
same,"mean steady state minimum plasma concentration (s.e., n=6)",[3]; [5],8.3 ± 0.6 µg/mL
same,peak time,"[3]; man, low oral doses, ref Raaflub & Ziegler, 1979",3 to 4 h
same,"mean peak plasma concentration per administered mg kg-1 (s.e., n=7)","[3]; man, oral, low doses (mean 1.73 mg kg-1), ref Raaflub & Ziegler, 1979",1.48 + 0.06 µg ml-1
same,predicted circulating (peak whole plasma) concentrations,[4],10-30 micrograms ml-1
same,enhancement factor of CCNU response in normal tissues,KHT tumour; [6],1.2-1.4
same,enhancement factor of tumour response to CCNU,KHT tumour; [6],1.5-2
same,i.p. dose giving clear enhancement of KHT tumour response to CCNU (at least as low as),"KHT tumour; ref Workman & Twentyman, 1982",≤ 13 mg/kg
